Tests used:
[1] = target: GDP-bound HRAS wild-type protein (Homo sapiens, UniProt P01112); test: Binding to HRAS by surface plasmon resonance (SPR), Single Cycle Kinetics; conditions: KD ratio, GDP-bound HRAS wild-type vs GDP-bound KRAS wild-type, SPR
[2] = target: GDP-bound NRAS wild-type protein (Homo sapiens, UniProt P01111); test: Binding to NRAS by surface plasmon resonance (SPR), Single Cycle Kinetics; conditions: KD ratio, GDP-bound NRAS wild-type vs GDP-bound KRAS wild-type, SPR
Sequence of GDP-bound NRAS wild-type protein (P01111 whole entry): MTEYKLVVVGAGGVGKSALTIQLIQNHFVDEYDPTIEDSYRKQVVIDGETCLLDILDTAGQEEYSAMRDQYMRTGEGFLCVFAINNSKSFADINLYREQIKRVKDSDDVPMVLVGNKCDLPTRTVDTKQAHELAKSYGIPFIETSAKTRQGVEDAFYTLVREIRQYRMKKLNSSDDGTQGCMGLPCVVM

Sequence of GDP-bound HRAS wild-type protein (P01112 whole entry): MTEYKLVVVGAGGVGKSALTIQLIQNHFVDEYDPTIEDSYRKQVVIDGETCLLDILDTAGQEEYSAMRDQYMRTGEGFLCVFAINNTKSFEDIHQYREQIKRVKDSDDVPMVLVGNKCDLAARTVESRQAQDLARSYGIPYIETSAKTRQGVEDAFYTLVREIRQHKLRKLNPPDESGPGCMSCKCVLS

SMILES	HRAS/KRAS (ratio of KD value with respect to HRAS to KD value with respect to KRAS) [1]	NRAS/KRAS (ratio of KD value with respect to NRAS to KD value with respect to KRAS) [2]
CCO[C@@H]1C[C@H]2C(=O)NC3(CCC3)C(=O)N(C)[C@@H](C3CCCC3)C(=O)N(C)[C@H](C(=O)N(C)C)CC(=O)N(C)[C@@H](COC)C(=O)N[C@@H]([C@@H](C)CC)C(=O)N(C)CC(=O)N(C)[C@H]3C/C=C\CCN(C3=O)[C@@H](Cc3ccc(C(F)(F)F)cc3)C(=O)N(C)CC(=O)N[C@@H](CCc3cc(F)c(C(F)(F)F)c(F)c3)C(=O)N2C1 [PP1113]	A (a compound having 10 or more and less than 20 is denoted as A)	A (a compound having 10 or more and less than 20 is denoted as A)
C=CC[C@H]1C(=O)N[C@@H]([C@@H](C)CC)C(=O)N(C)CC(=O)N(C)[C@H]2C/C=C\CCN(C2=O)[C@@H](Cc2ccc(C(F)(F)F)cc2)C(=O)N(C)CC(=O)N[C@@H](CCc2cc(F)c(C(F)(F)F)c(F)c2)C(=O)N2C[C@H](OCC)C[C@H]2C(=O)NC2(CCC2)C(=O)N(C)[C@@H](C2CCCC2)C(=O)N(C)[C@H](C(=O)N(C)C)CC(=O)N1C [PP1114]	A (a compound having 10 or more and less than 20 is denoted as A)	A (a compound having 10 or more and less than 20 is denoted as A)
C#CC[C@H]1C(=O)N[C@@H]([C@@H](C)CC)C(=O)N(C)CC(=O)N(C)[C@H]2C/C=C\CCN(C2=O)[C@@H](Cc2ccc(C(F)(F)F)cc2)C(=O)N(C)CC(=O)N[C@@H](CCc2cc(F)c(C(F)(F)F)c(F)c2)C(=O)N2C[C@H](OCC)C[C@H]2C(=O)NC2(CCC2)C(=O)N(C)[C@@H](C2CCCC2)C(=O)N(C)[C@H](C(=O)N(C)C)CC(=O)N1C [PP1115]	A (a compound having 10 or more and less than 20 is denoted as A)	A (a compound having 10 or more and less than 20 is denoted as A)
CCO[C@@H]1C[C@H]2C(=O)NC3(CCC3)C(=O)N(C)[C@@H](C3CCCC3)C(=O)N(C)[C@H](C(=O)N(C)C)CC(=O)N(C)[C@@H](Cc3ccccc3)C(=O)N[C@@H]([C@@H](C)CC)C(=O)N(C)CC(=O)N(C)[C@H]3C/C=C\CCN(C3=O)[C@@H](Cc3ccc(C(F)(F)F)cc3)C(=O)N(C)CC(=O)N[C@@H](CCc3cc(F)c(C(F)(F)F)c(F)c3)C(=O)N2C1 [PP1116]	A (a compound having 10 or more and less than 20 is denoted as A)	A (a compound having 10 or more and less than 20 is denoted as A)
CCO[C@@H]1C[C@H]2C(=O)NC3(CCC3)C(=O)N(C)[C@@H](C3CCCC3)C(=O)N(C)[C@H](C(=O)N(C)C)CC(=O)N(C)[C@@H](CC(C)(C)C)C(=O)N[C@@H]([C@@H](C)CC)C(=O)N(C)CC(=O)N(C)[C@H]3C/C=C\CCN(C3=O)[C@@H](Cc3ccc(C(F)(F)F)cc3)C(=O)N(C)CC(=O)N[C@@H](CCc3cc(F)c(C(F)(F)F)c(F)c3)C(=O)N2C1 [PP1117]	A (a compound having 10 or more and less than 20 is denoted as A)	A (a compound having 10 or more and less than 20 is denoted as A)
CCO[C@@H]1C[C@H]2C(=O)NC3(CCC3)C(=O)N(C)[C@@H](C3CCCC3)C(=O)N(C)[C@H](C(=O)N(C)C)CC(=O)N(C)[C@@H](CC3CCC3)C(=O)N[C@@H]([C@@H](C)CC)C(=O)N(C)CC(=O)N(C)[C@H]3C/C=C\CCN(C3=O)[C@@H](Cc3ccc(C(F)(F)F)cc3)C(=O)N(C)CC(=O)N[C@@H](CCc3cc(F)c(C(F)(F)F)c(F)c3)C(=O)N2C1 [PP1118]	B (a compound having 3 or more and less than 10 is denoted as B)	A (a compound having 10 or more and less than 20 is denoted as A)
CCO[C@@H]1C[C@H]2C(=O)NC3(CCC3)C(=O)N(C)[C@@H](C3CCCC3)C(=O)N(C)[C@H](C(=O)N(C)C)CC(=O)N(C)[C@@H](CSC)C(=O)N[C@@H]([C@@H](C)CC)C(=O)N(C)CC(=O)N(C)[C@H]3C/C=C\CCN(C3=O)[C@@H](Cc3ccc(C(F)(F)F)cc3)C(=O)N(C)CC(=O)N[C@@H](CCc3cc(F)c(C(F)(F)F)c(F)c3)C(=O)N2C1 [PP1119]	A (a compound having 10 or more and less than 20 is denoted as A)	A (a compound having 10 or more and less than 20 is denoted as A)
CCO[C@@H]1C[C@H]2C(=O)NC3(CCC3)C(=O)N(C)[C@@H](C3CCCC3)C(=O)N(C)[C@H](C(=O)N(C)C)CC(=O)N(C)[C@@H](CC(F)F)C(=O)N[C@@H]([C@@H](C)CC)C(=O)N(C)CC(=O)N(C)[C@H]3C/C=C\CCN(C3=O)[C@@H](Cc3ccc(C(F)(F)F)cc3)C(=O)N(C)CC(=O)N[C@@H](CCc3cc(F)c(C(F)(F)F)c(F)c3)C(=O)N2C1 [PP1120]	A (a compound having 10 or more and less than 20 is denoted as A)	A (a compound having 10 or more and less than 20 is denoted as A)
CCO[C@@H]1C[C@H]2C(=O)NC3(CCC3)C(=O)N(C)[C@@H](C3CCCC3)C(=O)N(C)[C@H](C(=O)N(C)C)CC(=O)N(C)[C@@H](CCC(F)F)C(=O)N[C@@H]([C@@H](C)CC)C(=O)N(C)CC(=O)N(C)[C@H]3C/C=C\CCN(C3=O)[C@@H](Cc3ccc(C(F)(F)F)cc3)C(=O)N(C)CC(=O)N[C@@H](CCc3cc(F)c(C(F)(F)F)c(F)c3)C(=O)N2C1 [PP1121]	A (a compound having 10 or more and less than 20 is denoted as A)	A (a compound having 10 or more and less than 20 is denoted as A)
CCO[C@@H]1C[C@H]2C(=O)NC3(CCC3)C(=O)N(C)[C@@H](C3CCCC3)C(=O)N(C)[C@H](C(=O)N(C)C)CC(=O)N(C)[C@@H](CCC(=O)N(C)C)C(=O)N[C@@H]([C@@H](C)CC)C(=O)N(C)CC(=O)N(C)[C@H]3C/C=C\CCN(C3=O)[C@@H](Cc3ccc(C(F)(F)F)cc3)C(=O)N(C)CC(=O)N[C@@H](CCc3cc(F)c(C(F)(F)F)c(F)c3)C(=O)N2C1 [PP1122]	B (a compound having 3 or more and less than 10 is denoted as B)	A (a compound having 10 or more and less than 20 is denoted as A)
CCO[C@@H]1C[C@H]2C(=O)NC3(CCC3)C(=O)N(C)[C@@H](C3CCCC3)C(=O)N(C)[C@H](C(=O)N(C)C)CC(=O)N(C)[C@@H](Cc3cccs3)C(=O)N[C@@H]([C@@H](C)CC)C(=O)N(C)CC(=O)N(C)[C@H]3C/C=C\CCN(C3=O)[C@@H](Cc3ccc(C(F)(F)F)cc3)C(=O)N(C)CC(=O)N[C@@H](CCc3cc(F)c(C(F)(F)F)c(F)c3)C(=O)N2C1 [PP1123]	B (a compound having 3 or more and less than 10 is denoted as B)	A (a compound having 10 or more and less than 20 is denoted as A)
CCO[C@@H]1C[C@H]2C(=O)NC3(CCC3)C(=O)N(C)[C@@H](C3CCCC3)C(=O)N(C)[C@H](C(=O)N(C)C)CC(=O)N(C)[C@@H](CC(F)(F)F)C(=O)N[C@@H]([C@@H](C)CC)C(=O)N(C)CC(=O)N(C)[C@H]3C/C=C\CCN(C3=O)[C@@H](Cc3ccc(C(F)(F)F)cc3)C(=O)N(C)CC(=O)N[C@@H](CCc3cc(F)c(C(F)(F)F)c(F)c3)C(=O)N2C1 [PP1124]	B (a compound having 3 or more and less than 10 is denoted as B)	A (a compound having 10 or more and less than 20 is denoted as A)
CCO[C@@H]1C[C@H]2C(=O)NC3(CCC3)C(=O)N(C)[C@@H](C3CCCC3)C(=O)N(C)[C@H](C(=O)N(C)C)CC(=O)N(C)[C@@H](Cc3cccc(F)c3)C(=O)N[C@@H]([C@@H](C)CC)C(=O)N(C)CC(=O)N(C)[C@H]3C/C=C\CCN(C3=O)[C@@H](Cc3ccc(C(F)(F)F)cc3)C(=O)N(C)CC(=O)N[C@@H](CCc3cc(F)c(C(F)(F)F)c(F)c3)C(=O)N2C1 [PP1126]	A (a compound having 10 or more and less than 20 is denoted as A)	A (a compound having 10 or more and less than 20 is denoted as A)
CCO[C@@H]1C[C@H]2C(=O)NC3(CCC3)C(=O)N(C)[C@@H](C3CCCC3)C(=O)N(C)[C@H](C(=O)N(C)C)CC(=O)N(C)[C@@H](Cc3cccc(Cl)c3)C(=O)N[C@@H]([C@@H](C)CC)C(=O)N(C)CC(=O)N(C)[C@H]3C/C=C\CCN(C3=O)[C@@H](Cc3ccc(C(F)(F)F)cc3)C(=O)N(C)CC(=O)N[C@@H](CCc3cc(F)c(C(F)(F)F)c(F)c3)C(=O)N2C1 [PP1127]	A (a compound having 10 or more and less than 20 is denoted as A)	AA (a compound having 20 or more is denoted as AA)
CC[C@H](C)[C@@H]1NC(=O)[C@H](CC)N(C)C(=O)C[C@@H](C(=O)N(C)C)N(C)C(=O)[C@H](C2CCCC2)N(C)C(=O)C2(CCC2)NC(=O)[C@@H]2C[C@H](OC)CN2C(=O)[C@H](CCc2cc(F)c(C(F)(F)F)c(F)c2)NC(=O)CN(C)C(=O)[C@H](Cc2ccc(C(F)(F)F)cc2)N2CC/C=C\C[C@@H](C2=O)N(C)C(=O)CN(C)C1=O [PP1128]	A (a compound having 10 or more and less than 20 is denoted as A)	AA (a compound having 20 or more is denoted as AA)
CC[C@H](C)[C@@H]1NC(=O)[C@H](CC)N(C)C(=O)C[C@@H](C(=O)N(C)C)N(C)C(=O)[C@H](C2CCCC2)N(C)C(=O)C2(CCC2)NC(=O)[C@@H]2CC(F)(F)CN2C(=O)[C@H](CCc2cc(F)c(C(F)(F)F)c(F)c2)NC(=O)CN(C)C(=O)[C@H](Cc2ccc(C(F)(F)F)cc2)N2CC/C=C\C[C@@H](C2=O)N(C)C(=O)CN(C)C1=O [PP1129]	B (a compound having 3 or more and less than 10 is denoted as B)	A (a compound having 10 or more and less than 20 is denoted as A)

Source: patent US20250230193A1, “CYCLIC COMPOUND HAVING SELECTIVE KRAS INHIBITORY EFFECT ON HRAS AND NRAS” (CHUGAI SEIYAKU KABUSHIKI KAISHA, priority 2022, published 2025)
